Like-named read-outs stand apart in the source and are kept apart here.
How the values were obtained:
[1] = test system: E. coli K-12 cells (strain DH5); assay: Sterilization efficacy on LB agar plates loaded with E. coli, ozone generation and degradation cycle in cell culture chamber; type: cell-based; settings: test #2 dish; approx. 1.5×10^8 cells plated; ozone 120 minutes plus 15 minutes degradation; peak approx. 140-150 ppm ozone; plates incubated at 37° C. overnight
Protocol: In tests #2 and #3, represented by lines 520 and 530, respectively, both the ozone generator and an ozone degrader were present in the cell culture chamber. The ozone degrader was formed of three activated carbon filters. With the ozone degrader present, the ozone generator was unable to achieve the peak ozone concentration seen in test #1. In tests #2 and #3, the ozone generator was run for 120 minutes and the concentration of ozone noticeably plateaued. The air within the cell culture chamber reached a peak ozone concentration of approximately 140-150 ppm ozone. After the ozone generator was turned off, the ozone began to break down at an accelerated rate with the activated carbon filters present. In both tests #2 and #3, the ozone levels reached a level of 0.01 ppm ozone within 15 minutes.
While the peak ozone concentrations reached in tests #2 and #3 were noticeably lower than the peak ozone concentration of test #1, the ozone levels in tests #2 and #3 were at least sufficient to achieve sterilization. In each of tests #2 and #3, sterilization efficacy was measured with the assistance of LB agar plates loaded with E. coli bacteria. […] The quantity of E. coli present was then analyzed and a photograph of each plate was taken. […] In the test dish 550, a 100% E. coli kill rate was observed; no E. coli was detected.

humans = settings: OSHA limit, per workday; cited from earlier work
bacteriophage T1 = assay: Effect of ozone on bacteriophage T1 spotted on LB agar plates; type: cell-based; settings: spots of 10^9 to 10^6 pfu/mL; ozone 4 hours, peak less than 150 ppm; silver-coated mesh generator; DH5 E. coli overlay, 72 hours at room temperature
Protocol: In Experiment 2, the effect of ozone on bacteriophage T1 was studied. In the experiment, 2.5 μL of purified bacteriophage T1 was spotted in four quadrants of two LB agar plates—a test plate 610 and a control plate 620, shown in FIG. 6. The bacteriophage concentrations on each of the two plates were (clockwise from the spot in the upper right quadrant): 10^9 pfu/mL, 10^8 pfu/mL, 10^7 pfu/mL, and 10^6 pfu/mL.
The test plate 610 was placed in an incubator chamber containing both an ozone generator and an ozone degrader. The ozone generator included two ceramic plates surrounded substantially by a silver-coated metal mesh. The ozone generator was activated and the test plate 610 was treated with ozone for 4 hours. The ozone generator was then turned off, and the ozone degrader, formed of activated carbon filters, accelerated the conversion of ozone to oxygen. The peak ozone concentration level generated within the incubator chamber was less than 150 ppm ozone.
The control plate 620 was placed in a different incubator chamber and left untreated. After the ozone generation and degradation cycle completed in the incubator chamber containing the test plate 610, 1 mL of stationary DH5 E. coli bacteria and top agar were added to each plate and incubated at room temperature for 72 hours. The photograph 600 in FIG. 6 was taken immediately following this 72-hour period.

[2] = Ozone breakdown in enclosed cell culture chamber, monitored with calibrated ozone analyzer; type: physicochemical
Protocol: In Experiment 1, an 1800 mg/hour ozone generator was placed in a 5.5 cubic feet cell culture. The ozone level within the chamber was monitored using a calibrated ozone analyzer. Ozone measurements were captured every 10 seconds. The experimental results, as represented by ozone level over time, are provided in the line graph 500 of FIG. 5A. In test #1, represented by line 510, the ozone generator was run for 80 minutes and achieved a peak ozone concentration within the cell culture chamber of approximately 325 ppm. After the ozone generator was turned off, the ozone was left to break down naturally within the enclosed cell culture chamber. It took approximately 28 hours for the ozone to breakdown to 0.01 ppm ozone.
In tests #2 and #3, represented by lines 520 and 530, respectively, both the ozone generator and an ozone degrader were present in the cell culture chamber. The ozone degrader was formed of three activated carbon filters. With the ozone degrader present, the ozone generator was unable to achieve the peak ozone concentration seen in test #1. In tests #2 and #3, the ozone generator was run for 120 minutes and the concentration of ozone noticeably plateaued. The air within the cell culture chamber reached a peak ozone concentration of approximately 140-150 ppm ozone. […]

[3] = cited from earlier work

Structure (SMILES): O=[O+][O-] [ozone]
- E. coli kill rate [1]: 100%
- acceptable ozone exposure in the workplace (humans): under 0.1 ppm
- survival of the T1-phage (bacteriophage T1): negligible survival
- time for the ozone to breakdown to 0.01 ppm ozone ([2]; test #1, natural breakdown, no degrader, from peak approx. 325 ppm, 5.5 cubic feet chamber): approximately 28 hours
- time for ozone levels to reach 0.01 ppm ozone ([2]; tests #2 and #3, three activated carbon filters as ozone degrader, from peak approx. 140-150 ppm): ≤ 15 min
- half-life ([3]; in the air): 36 to 72 h
- half-life ([3]; in water): 0.13 to 0.5 h

Reference: US10980910B2, “Apparatus and methods for ozone generation and degradation” (Gene Therapy Systems, Inc., priority 2013, dated 2021)
